Test system: L1210
Assay: Tumor resistance against L1210 (i.p. transplanted, CDF1 mice), T/C
Type: in vivo
Parameters: key to Toxic mark (T: large weight loss): P: Effective (Over 125%); Toxic (Large Weight Loss)
Settings: for Cured mice out of six / Toxic mark (T: large weight loss): i.p. on days 1, 5 and 9
Method: The test was conducted by prescribing L1210 in a peritoneal cavity of six CDF1 mice/one group (the number of transplanted cells is […] per mouse and prescribing the medicine in the poritoncal cavity on a first day, a fifth day and a ninth day.

N[C@@H]1CCCC[C@H]1N.O=C([O-])C(=O)[O-].[Pt+2] (relative stereo) [Comp. Ex., cis-oxalate(trans-1-1,2-cyclohexanediamine) Pt(II), reference compound]
Cured mice out of six (6.25 mg/kg): 1/6
Cured mice out of six (12.5 mg/kg): 4/6
Toxic mark (T: large weight loss) (25 mg/kg): T
Tumor Resistance T/C (%) (25 mg/kg, i.p. on days 1, 5 and 9, six CDF1 mice/group): 81%

N[C@@H]1CCCC[C@H]1N.O=C([O-])C(=O)[O-].[Pt+2] (relative stereo) [Example 1, cis-oxalato (trans-1-1,2-cyclohexanediamine) Pt(II)]
Cured mice out of six (6.25 mg/kg): 3/6
Cured mice out of six (6.25 mg/kg, listed as Example 2): 3/6
Cured mice out of six (6.25 mg/kg, listed as Example 3): 3/6
Cured mice out of six (12.5 mg/kg): 2/6
Cured mice out of six (12.5 mg/kg, listed as Example 2): 2/6
Cured mice out of six (12.5 mg/kg, listed as Example 3): 2/6
Toxic mark (T: large weight loss) (25 mg/kg): T
Activity against tumor leukemia L1210 (in words) (high optical purity compound): active against a tumor "leukomia L1210"

Reference: US5338874A, “Cis oxalato (trans 1-1,2-cyclohexanediamine) PT(II) having optically high purity” (Tanaka Kikinzoku Kogyo K.K., priority 1993, dated 1994)
